As usually defined, the inhibition is the share of the control response that was lost under treatment. What is called IC50 is the point on the concentration scale where inhibition reaches its midpoint. The half-life is the time needed for the level to fall by half in the phase considered. Broadly, the AUC(0-t) is the area under the concentration-time curve up to a stated or last time point. Broadly, the bioavailability is dose-corrected exposure relative to a reference, in per cent. A high value points to good availability. As usually defined, the Cmax is the maximum level reached in the sampled fluid or tissue. The Tmax is the time from dosing to the highest level.

The values that follow come from article PMC8998904, “Identification and New Indication of Melanin-Concentrating Hormone Receptor 1 (MCHR1) Antagonist Derived from Machine Learning and Transcriptome-Based Drug Repositioning Approaches” (International Journal of Molecular Sciences, 2022).

SMILES strings stand for the structures.

Series [1] concerns the target T1, human recombinant MCH-1 receptor (Homo sapiens, UniProt Q99705).
T1 construct: purchased Euroscreen S.A. (PerkinElmer)
The series is described as follows: Time-resolved fluorescence (TRF)-based MCHR1 receptor-binding assay with Eu-MCH. As to the method:
An in vitro time-resolved fluorescence (TRF)-based binding assay for MCHR1 was performed to identify the MCHR1 antagonist from the 19 predicted compounds selected through in silico screening. […] In addition, a patch clamp assay was performed to measure the cardiotoxicity of the five compounds. […] Consequently, of the five compounds, only KRX-104130 and KRX-104165 overcame cardiotoxicity.
The receptor-binding affinities of the generated 19 compounds were determined by time-resolved fluorescence (TRF)-based receptor-binding assays using europium-labeled MCH (Eu-MCH) in 96-well AcroWell™ plates. The MCH labeled with europium at the N-1 position was supplied by the Wallac Labeling Service (PerkinElmer, Inc., Waltham, MA, USA). The human recombinant MCH-1 receptor membrane preparation (MCH-1/SLC1 membrane) was obtained from Euroscreen S.A. (PerkinElmer). The binding assay buffer contained 25 mM 4-(2-hydroxyethyl)-1-piperazineethanesulfonic acid (HEPES; pH 7.4), 5 mM MgCl2, 1 mM CaCl2, and 0.5% bovine serum albumin. Total binding was determined from the binding reaction in the presence of 2 nM Eu-MCH and 5 μg/unit MCH-1 receptor membrane for 90 min. Nonspecific Eu–MCH binding was defined in the presence of 0.5 µM unlabeled MCH. After incubation for 90 min, the plate was washed three times with 300 µL of ice-cold 25 mM HEPES buffer (pH 7.4) in an automatic vacuum filtration system. The Eu was dissociated from the bound ligand by the addition of 150 µL of DELFIA enhancement solution (Perkin Elmer) and incubated for 10 min with shaking. Fluorescence signals from dissociated Eu were measured using a multilabel reader (Envision, PerkinElmer) with an excitation wavelength (340 nm) and an emission wavelength (615 nm).

Series [2] deals with A375, A549, MCF7 and PC3 cells. As to the kind of experiment: mRNA gene expression (transcriptome, DEG) analysis in four cell lines. It is filed as cell-based, human. As to conditions: 10 μM, 6 h; common gene of four cell lines. The method, then: Transcriptome analysis was performed to identify new indications of KRX-104130. For each of the four cell lines, human skin malignant melanoma cells (A375), human lung carcinoma cells (A549), human breast carcinoma cells (MCF7), and human prostate adenocarcinoma cells (PC3), 10 μM of KRX-104130 was administered for 6 h in the control and treatment groups. As an independent experiment was performed three times, considering the error, the average value was used for comparison. The change in gene expression levels was calculated by dividing the […]. Fold change (FC) was expressed as a positive or negative value when the gene expression value of the treatment group was greater or lower than that of the control group, respectively.
Four cell lines were used for the cell culture: A375, A549, MCF7, and PC3, purchased from the American Type Culture Collection (ATCC, Rockville, MD, USA). The A375 and A549 cells were cultured in RPMI-1640 medium supplemented with 10% fetal bovine serum (FBS) and 1% penicillin-streptomycin-glutamine. The MCF7 cells were cultured in Dulbecco’s modified Eagle’s medium (DMEM) with 10% FBS and 1% penicillin-streptomycin-glutamine. The PC3 cells were cultured in RPMI with 10% FBS, 1% penicillin-streptomycin-glutamine, 1 mM sodium pyruvate, and 10 mM HEPES. KRX-104130 was synthesized at the Research Center for Medicinal Chemistry, Korea Research Institute of Chemical Technology (KRICT, Daejeon, Korea).
After releasing the stock, the cells were used in the experiments and cultured for two weeks to stabilize. KRX-104130 was dissolved in dimethylsulfoxide (DMSO) to form a 10 mM stock solution and stored in a deep freezer (−80 °C). Six sheets were seeded in each of the four cell lines, three sheets of DMSO and KRX-104130 (DMSO × 3 and KRX-104130 × 3), and they were stored in an incubator for 24 h. Cells were plated at 1.1375 × 10^6 cells for A375, 1.3 × 10^6 cells for A549, 8.45 × 10^5 cells for MCF7, and 1.496 × 10^6 cells for PC3 under the culture conditions. After 24 h, DMSO and KRX-104130 were diluted 1000-fold in the medium, and the cells were treated with a final concentration of 0.1% DMSO and 10 μM KRX-104130. After 6 h, the medium was removed, and the cells were collected by treatment with 1 mL of TRIzol. After destroying the cells by pipetting, they were stored in a deep freezer (−80 °C).
The total RNA samples were assessed using the Clariom™ S Assay Human Platform. cDNA was synthesized using the GeneChip WT (Whole Transcript) Amplification Kit as described by the manufacturer. The sense cDNA was then fragmented and biotin-labeled with terminal deoxynucleotidyl transferase (TdT) using the GeneChip WT Terminal labeling kit. Approximately 5.5 μg of labeled DNA target was hybridized to the Affymetrix GeneChip Array at 45 °C for 16 h. The hybridized arrays were washed and stained on a GeneChip Fluidics Station 450 and scanned using a GCS3000 scanner. Probe cell intensity data computation and CEL file generation were performed using Affymetrix® GeneChip Command Console® Software version 6.0+ (AGCC, www.thermofisher.com/kr/ko/home/life-science/microarray-analysis/microarray-analysis-instruments-software-services/microarray-analysis-software/affymetrix-genechip-command-console-software.html, accessed on 1 September 2021). The CEL file is a binary format that contains the intensity calculated result for the pixel values of the DAT file and is used to extract normalized intensity to be used for actual analysis in Affymetrix® Power Tools version 2.11.4 (APT, www.thermofisher.com/kr/en/home/life-science/microarray-analysis/microarray-analysis-partners-programs/affymetrix-developers-network/affymetrix-power-tools.html, accessed on 1 September 2021). […]

A short description of series [3]: Plasma pharmacokinetic profile in mice (I.V. and P.O.). The conditions noted are these: for AUC(0-t): AUC0–t, n=3.

T1 sequence (Q99705 whole entry): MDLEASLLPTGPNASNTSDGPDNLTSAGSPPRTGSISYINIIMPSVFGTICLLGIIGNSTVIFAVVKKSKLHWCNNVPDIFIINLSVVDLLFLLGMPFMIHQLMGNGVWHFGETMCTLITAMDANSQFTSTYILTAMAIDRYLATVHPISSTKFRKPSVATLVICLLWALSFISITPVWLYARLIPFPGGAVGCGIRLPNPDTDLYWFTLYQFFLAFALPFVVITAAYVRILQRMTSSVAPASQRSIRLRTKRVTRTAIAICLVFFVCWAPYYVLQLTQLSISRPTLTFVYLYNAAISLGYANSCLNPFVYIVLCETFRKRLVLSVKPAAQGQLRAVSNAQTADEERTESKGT

As to `COc1nc2cc(F)c(F)cc2nc1NC(=O)NC1CCN(Cc2cc3ccccc3[nH]2)CC1` [KRX-104130], the inhibition at 10 µM in series [1] (10 μM, TRF MCHR1 binding, read-out: inhibition rate (%) at 10 μM) came out at 97.1%. Besides, the IC50 in series [1] (TRF-based binding, 2 nM Eu-MCH) came to 0.02 µM. Further, in series [2], the “Fold change (FC) CCNE2” value was −1.96, the “Fold change (FC) DNAJB9” value is 3.50, the “Fold change (FC) HERPUD1” value is given as 3.17 and the “Fold change (FC) HSD17B7” value was determined as 2.22. Besides, in series [2], the “Fold change (FC) INSIG1” value is given as 2.85, the “Fold change (FC) LDLR” value is reported as 2.79, the “Fold change (FC) MSMO1” value is reported as 3.09 and the “Fold change (FC) TIPARP” value is reported as 3.98. Besides, the “Tolerability / death after administration to mice” value in series [3] (mice, pharmacokinetic study) is given as “without specific abnormalities”. In series [3] (mouse, plasma, iv, 10 mg/kg), the Vd was found to be 14.2 ± 0.72 L/kg, the clearance was 36.8 mL/min/kg and the half-life is 5.71 ± 1.03 h. Further, the area under the curve AUC(0-t) in series [3] (mouse, plasma, iv, 10 mg/kg, mice, I.V.) amounted to 4550 ± 220 ng·h/mL. In series [3] (mouse, plasma, oral, 20 mg/kg), this molecule yielded a bioavailability of 20.3%. Also, in series [3] (mouse, plasma, po, 20 mg/kg), the concentration peaked (Cmax) at 130 ± 50 ng/mL, the Tmax turned out to be 6.67 ± 2.31 h and the half-life is 10.2 h. In addition, in series [3] (mouse, plasma, po, 20 mg/kg, mice, P.O.), the AUC(0-t) worked out at 1720 ± 850 ng·h/mL.
